Laboratory results reported in US20260015341A1, “PI3K INHIBITOR, PREPARATION METHOD THEREFOR, AND USE THEREOF” (HINOVA PHARMACEUTICALS INC., priority 2022, published 2026).
pIC50: −log10 of the molar value.

Tests used:
MCF-10A cells = assay: Inhibitory effects on the proliferation of MCF-10A cells (CCK8); type: cell-based; conditions: Homo sapiens, 144 h, 6 days
Procedure, shortened: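 MCF-10A cells seeded at 500 cells/well, cultured 24 h, then exposed to 9-point 3-fold dilutions from 10 μM final for 6 days at 37° C., 5% CO2. Viability by CCK8, 2–3 h, OD450 read; IC50 reported.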

[1] = Pharmacokinetics in beagle dogs; type: in vivo; conditions: beagle dog; for AUC / half-life / clearance / Vd: male, plasma; for Vd: read-out: VSS
Procedure: Experimental Example 5: The Pharmacokinetics of the Compound According to the Present Invention in Beagle Dogs
(§1) 9 healthy adult male beagle dogs (three for each administration route of each compound) were fasted overnight (>12 h) before gavage, with free access to water; 4 hours after administration, rats could take food, and were administered via tail vein injection and gastric lavage, respectively. At different time points, forelimb venous blood sample was collected and anti-coagulated, wherein the anticoagulant was EDTA-K2 (the sample was placed in an ice bath after blood collection). The plasma was separated by centrifugation at 3200 g for 10 min, and stored at −70° C. for testing. The plasma concentration of compounds was determined by LC-MS/MS method.
(§2) The plasma concentration of compound at all time points was used to calculate the main pharmacokinetic parameters with Winnolin 8.3 non-compartmental model.
(§3) The area under the concentration-time curve AUCall value: calculated using the trapezoidal method; AUCinf=AUCall+Ct/ke, Ct is the plasma concentration at the last measurable time point, and ke is the elimination rate constant;
(§4) The clearance rate CL=D/AUCinf (D is the administration dosage);
The volume of distribution at steady state Vss=CL×MRT. The mean retention time MRT=AUMC/AUC;

[2] = molecular target: PI3Kα[WT]/[E542K]/[E545K]/[H1047R]/PI3Kβ/γ/δ; assay: PI3K enzyme activity assay (ADP-Glo); type: biochemical; conditions: PI3K kinase reaction, isoform not given
Procedure: Experimental Example 1: PI3Kα[WT]/[E542K]/[E545K]/[H1047R]/PI3Kβ/γ/δ Enzyme Activity Assay
PI3Kα[WT], PI3Kα[E542K], PI3Kα[E545K], PI3Kα[H1047R], PI3Kβ, PI3Kγ and PI3Kδ kinase reaction was performed in 384-well plate (PerkinElmer, #6008280), with a reaction system of 4 μL. PI3Kα[WT] enzyme solution (Promega, #V1721) or PI3Kα[E542K] enzyme solution (CarnaBio, #11-413-20N) or PI3Kα[E545K] enzyme solution (CarnaBio, #11-414-20N) or PI3Kα[H1047R] enzyme solution (Promega, #V1741) or PI3Kβ enzyme solution (Promega, #V1751) or PI3Kγ enzyme solution (ThermoFisher, #PV4786) or PI3Kδ enzyme solution (ThermoFisher, #PV6451) were added to 384-well plate, and then gradiently diluted compounds were added (starting at a final concentration of 10 μM, 3-fold dilution, 10 doses), followed by adding PIP2: 3PS (Promega, #V1701) and ATP solution (Promega, #V915B) to the plate. After incubation at 25° C. for 1 h, ADP-Glo reagent buffer (Promega, #V9102) was added to each well. The plate was sealed and incubated at 25° C. for 40 min, and then 10 μL of ADP-Glo detection buffer (Promega, #V9102) was added to each well. After incubating at 25° C. for 40 min, the chemiluminescence value was read using an instrument.
The experimental results are shown in the ADP Glo IC50 column in Table 2.

Pharmacokinetics in rats = type: in vivo, SD rats; conditions: rat; for AUC / half-life / clearance / Vd: male, SD, plasma; for Vd: read-out: VSS
Procedure: Experimental Example 4: The Pharmacokinetics of the Compound According to the Present Invention in Rats
as §1, with “SD rats” for “beagle dogs”, “intravenous” for “forelimb venous”, “4° C. and 6000” for “3200”, “5” for “10”
as §2, §3
The elimination half life t1/2=0.693/ke;
as §4
The volume of distribution at steady state Vss=CL×MRT, The mean retention time MRT=AUMC/AUC;

[3] = po, ig (intragastric), 10 mg/kg
[4] = iv (tail vein injection), 1 mg/kg

F ([1]; ig (intragastric), 3 mg/kg) [%]	F ([1]; ig (intragastric), 10 mg/kg) [%]	AUC ([1]; po, ig (intragastric), 3 mg/kg) [ng·h/mL]	half-life ([1]; po, ig (intragastric), 3 mg/kg) [h]	AUC [1, 3] [ng·h/mL]	half-life [1, 3] [h]	AUC ([1]; iv, 1 mg/kg) [ng·h/mL]	clearance ([1]; iv, 1 mg/kg) [mL/min/kg]	half-life ([1]; iv, 1 mg/kg) [h]	Vd ([1]; iv, 1 mg/kg) [L/kg]	pIC50 [2]	AUC (Pharmacokinetics in rats; po, ig (intragastric), 3 mg/kg) [ng·h/mL]	half-life (Pharmacokinetics in rats; po, ig (intragastric), 3 mg/kg) [h]	AUC (Pharmacokinetics in rats; [4]) [ng·h/mL]	clearance (Pharmacokinetics in rats; [4]) [mL/min/kg]	half-life (Pharmacokinetics in rats; [4]) [h]	Vd (Pharmacokinetics in rats; [4]) [L/kg]	F (Pharmacokinetics in rats; ig (intragastric), 3 mg/kg) [%]	Compound	pIC50 (MCF-10A cells)
74.5	49.1	4910	3.81	11000	7.7	2210	7.77	3.34	0.879	> 6.00	4040	18	1390	10.9	3.44	2.2	89.0	Cc1cc([C@@H](C)Nc2ccc(Cl)nc2C(=O)O)c2nc(-c3ccc(F)cn3)n(C)c(=O)c2c1 [Compound 66, (R)-6-chloro-3-((1-(2-(5-fluoropyridin-2-yl)-3,6-dimethyl-4-oxo-3,4-dihydroquinazolin-8-yl)ethyl)amino)pyridinecarboxylic Acid]	< 5.30
52.4	62.8	3710	4.11	13700	12.7	2390	6.9	5.56	0.663	> 6.00	1330	2.4	1010	16.6	2.73	1.33	44.8	C[C@@H](Nc1ccc(Cl)nc1C(=O)O)c1cc(F)cc2c(=O)n(C)c(-c3ccc(F)cn3)nc12 [Compound 74]	< 5.30
